Test results reported in article PMC8635125, “A Novel Dibenzoxazepine Attenuates Intracellular Salmonella Typhimurium Oxidative Stress Resistance” (Microbiology Spectrum, 2021).
Values after ≈ are worked out from the molar mass of the structure shown. Read-outs that look alike come from different tables or passages of the source.

Columns and labels:
[1] = test system: intracellular S. Typhimurium in RAW264.7 macrophages; test: microbe, parasite or virus in culture; format: cell-based, Salmonella enterica serovar Typhimurium; settings: for survival of intracellular Salmonella in macrophages, antibiotic alone: RAW264.7, 24 h
Method: (§1) Overnight cultures of RFP-expressing S. Typhimurium were prepared for infection by 1:100 dilution in fresh LB broth and incubation for 2 h at 37°C. The bacteria were then collected by centrifugation at 6,000 × g for 3 min and suspended in phosphate-buffered saline (PBS; pH 7.2) to an optical density of 0.6 at 600 nm, which was equivalent to 5 × 10^8 CFU/mL. RAW264.7 macrophages were seeded in 96-well black clear-bottom plates (Greiner) and incubated for 20 h followed by infection with RFP-expressing S. Typhimurium at a multiplicity of infection (MOI) of 50 for 1 h. […] Afterward, the cells were washed and stained with CellTracker Green (Thermo Fisher Scientific) for 30 min in serum-free DMEM followed by fixation in 3.7% formaldehyde (Sigma-Aldrich) for 20 min and stained with 0.2 mg/L DAPI (4′,6-diamidino-2-phenylindole; AAT Bioquest) for 30 min. Images of individual wells were captured and analyzed using a high-content imaging system (ImageXpress Micro 4; Molecular Devices). The CC50 and 50% effective concentration (EC50) values against intracellular bacteria of each compound were determined using CalcuSyn software (Biosoft).

S. Typhimurium NL08.10 = test: MIC assay (broth microdilution); format: cell-based, Salmonella Typhimurium; settings: Table S1(A); for MIC: Salmonella enterica, TYPHIMURIUM, NL08.10, read-out: MIC; for R/I/S: NL08.10, CLSI criteria
Method: (§2) The minimal inhibitory concentration (MIC) of each test compound against the individual bacterial strains was determined by the broth microdilution method following the guidelines recommended by the Clinical and Laboratory Standards Institute (CLSI) ([27]).

[2] = test system: S. Typhimurium ATCC 14028; test: MIC assay (broth microdilution); format: cell-based, Salmonella Typhimurium; settings: for MIC: Salmonella enterica; for R/I/S: ATCC 14028, CLSI criteria
Method: as §2

S. Typhimurium 0911R = test: microbe, parasite or virus in culture; format: cell-based, Salmonella Typhimurium; settings: for MIC: Salmonella enterica, TYPHIMURIUM; for R/I/S: Table S1(A), 0911R, CLSI criteria
Method: as §2

S. Typhimurium SA10 = test: MIC assay (broth microdilution); format: cell-based, Salmonella Typhimurium; settings: Table S1(B); for MIC: Salmonella enterica, TYPHIMURIUM, SA10; for R/I/S: SA10, CLSI criteria
Method: as §2

S. Typhimurium SB10 = test: MIC assay (broth microdilution); format: cell-based, Salmonella Typhimurium; settings: Table S1(B); for MIC: Salmonella enterica, TYPHIMURIUM, SB10, read-out: MIC; for R/I/S: SB10, CLSI criteria
Method: as §2

[3] = HCA cytotoxicity toward infected macrophages (nuclear staining); format: cell-based, murine; settings: mouse, RAW264.7 macrophages infected with S. Typhimurium, infected RAW264.7 cells, read-out: 50% cytotoxic concentration (CC50) toward macrophages
Method: as §1

[4] = test system: ROS levels in Salmonella-infected RAW264.7 cells; test: Analysis of ROS in macrophages (H2DCFDA); format: cell-based, murine; settings: 1 h; SW14 at concentrations up to 8 μM
Method: RAW264.7 macrophages were seeded in 96-well black plates and infected by S. Typhimurium ATCC 14028 at an MOI of 25 for 1 h. After infection, the cells were washed, exposed to 100 mg/L gentamicin for 1 h, washed with warm Krebs-Ringer phosphate buffer (KRP buffer; 120 mM NaCl, 5 mM KCl, 1.7 mM KH2PO4, 8.3 mM Na2HPO4, 10 mM glucose, 1 mM CaCl2, 1.5 mM MgCl2, pH 7.3) and stained with H2DCFDA at 37°C with 5% CO2 for 45 min. The cells were then washed with KRP buffer and treated with SW14 or PMA at the desired concentrations in KRP buffer with 10% FBS. Fluorescence signals at 488/525 nm (excitation/emission) were measured using a SpectraMax M5 Microplate Reader (Molecular Devices).

[5] = Table S1(A), ATCC 14028, read-out: MIC
[6] = Table S2, CAMH medium, read-out: MIC
[7] = Table S2, LB medium, read-out: MIC
[8] = Table S2, LPM medium, read-out: MIC

Cn1cnc(N)c2ncnc1-2 [3-MA, 3-methyladenine]
relative number of intracellular bacteria ([1]; 3-MA 10 mM, infected RAW264.7): increased significantly

CC1(C)S[C@@H]2[C@H](NC(=O)[C@H](N)c3ccccc3)C(=O)N2[C@H]1C(=O)O [Ampicillin]
MIC (S. Typhimurium NL08.10): > 64 µg/mL | R/I/S (S. Typhimurium NL08.10): R | MIC [2, 5]: 16 µg/mL (≈ 45.8 µM) | MIC [2, 6]: 4 µg/mL (≈ 11.4 µM) | MIC [2, 7]: 4 µg/mL (≈ 11.4 µM) | MIC [2, 8]: 1 µg/mL (≈ 2.86 µM) | R/I/S ([2]; Table S1(A)): I | MIC (S. Typhimurium 0911R): > 64 µg/mL | R/I/S (S. Typhimurium 0911R): R

O=C(N[C@H](CO)[C@H](O)c1ccc([N+](=O)[O-])cc1)C(Cl)Cl [Chloramphenicol]
MIC (S. Typhimurium NL08.10): 32 µg/mL (≈ 99 µM) | R/I/S (S. Typhimurium NL08.10): R | MIC [2, 5]: 16 µg/mL (≈ 49.5 µM) | R/I/S ([2]; Table S1(A)): I | R/I/S (S. Typhimurium 0911R): R

O=C(O)c1cn(C2CC2)c2cc(N3CCNCC3)c(F)cc2c1=O [Ciprofloxacin, ciprofloxacin]
survival of intracellular Salmonella in macrophages, antibiotic alone ([1]; HCA): inhibited the survival of intracellular Salmonella in macrophages in a dose-dependent manner

CNC(C)C1CCC(N)C(OC2C(N)CC(N)C(OC3OCC(C)(O)C(NC)C3O)C2O)O1 (stereo not drawn) [Gentamicin, gentamicin]
MIC (S. Typhimurium SA10): 0.5 µg/mL (≈ 1.05 µM) | R/I/S (S. Typhimurium SA10): S | MIC (S. Typhimurium NL08.10): 2 µg/mL (≈ 4.19 µM) | R/I/S (S. Typhimurium NL08.10): S | MIC [2, 5]: 2 µg/mL (≈ 4.19 µM) | MIC ([2]; Table S1(B), ATCC 14028, read-out: MIC): 2 µg/mL (≈ 4.19 µM) | R/I/S ([2]; Table S1(A)): S | R/I/S ([2]; Table S1(B)): S | MIC (S. Typhimurium SB10): 1 µg/mL (≈ 2.09 µM) | R/I/S (S. Typhimurium SB10): S | R/I/S (S. Typhimurium 0911R): S

CN1CCN(C2=Nc3ccccc3Oc3ccc(Cl)cc32)CC1 [Loxapine, loxapine]
CC50 at 24 h [3]: 88.2 µM | selectivity index (SI; CC50/EC50) ([1]; CC50 RAW264.7 / EC50 intracellular Salmonella): 16.3 | EC50 ([1]; Salmonella enterica, RFP-expressing S. Typhimurium in RAW264.7, 24 h, with gentamicin 20 mg/L, HCA, read-out: 50% effective concentration (EC50) against intracellular Salmonella): 5.4 µM

CC1COc2c(N3CCN(C)CC3)c(F)cc3c(=O)c(C(=O)O)cn1c23 (stereo not drawn) [Ofloxacin]
MIC (S. Typhimurium SA10): 8 µg/mL (≈ 22.1 µM) | R/I/S (S. Typhimurium SA10): R | MIC [2]: < 0.125 µg/mL | R/I/S ([2]; Table S1(B)): S | MIC (S. Typhimurium SB10): 8 µg/mL (≈ 22.1 µM) | R/I/S (S. Typhimurium SB10): R

CCCCCCCCCCCCCC(=O)O[C@@H]1[C@@H](C)[C@@]2(O)[C@@H](C=C(CO)C[C@]3(O)C(=O)C(C)=C[C@@H]23)[C@@H]2C(C)(C)[C@]12OC(C)=O [PMA, phorbol 12-myristate 13-acetate]
ROS level (H2DCFDA fluorescence signal) in infected macrophages [4]: significantly elevated

CO[C@H]1/C=C/O[C@@]2(C)Oc3c(C)c(O)c4c(O)c(c(/C=N/N5CCN(C)CC5)c(O)c4c3C2=O)NC(=O)/C(C)=C\C=C\[C@H](C)[C@H](O)[C@@H](C)[C@@H](O)[C@@H](C)[C@H](OC(C)=O)[C@@H]1C [Rifampicin]
MIC [2, 6]: 16 µg/mL (≈ 19.4 µM) | MIC [2, 7]: 16 µg/mL (≈ 19.4 µM) | MIC [2, 8]: 4 µg/mL (≈ 4.86 µM)

[H]/N=C(/N)N[C@H]1[C@H](O)[C@@H](O)[C@H](O[C@@H]2O[C@@H](C)[C@](O)(C=O)[C@H]2O[C@@H]2O[C@@H](CO)[C@H](O)[C@@H](O)[C@@H]2NC)[C@@H](N/C(N)=N\[H])[C@@H]1O [Streptomycin]
MIC (S. Typhimurium NL08.10): > 64 µg/mL | MIC [2, 5]: 32 µg/mL (≈ 55 µM) | MIC (S. Typhimurium 0911R): > 64 µg/mL

CN(C)[C@@H]1C(O)=C(C(N)=O)C(=O)[C@@]2(O)C(O)=C3C(=O)c4c(O)cccc4[C@@](C)(O)[C@H]3C[C@@H]12 [Tetracycline]
R/I/S (S. Typhimurium NL08.10): R | MIC [2, 5]: 8 µg/mL (≈ 18 µM) | R/I/S ([2]; Table S1(A)): I | R/I/S (S. Typhimurium 0911R): R

CN[C@H](CC(C)C)C(=O)N[C@H]1C(=O)N[C@@H](CC(N)=O)C(=O)N[C@H]2C(=O)N[C@H]3C(=O)N[C@H](C(=O)N[C@H](C(=O)O)c4cc(O)cc(O)c4-c4cc3ccc4O)[C@H](O)c3ccc(c(Cl)c3)Oc3cc2cc(c3O[C@@H]2O[C@H](CO)[C@@H](O)[C@H](O)[C@H]2O[C@H]2C[C@](C)(N)[C@H](O)[C@H](C)O2)Oc2ccc(cc2Cl)[C@H]1O [Vancomycin]
MIC ([2]; Table S2, CAMH medium): 2050 µg/mL (≈ 1410 µM) | MIC ([2]; Table S2, LB medium): 512 µg/mL (≈ 353 µM) | MIC ([2]; Table S2, LPM medium): 128 µg/mL (≈ 88.3 µM)

C=CC1=C(C(=O)O)N2C(=O)[C@@H](NC(=O)/C(=N\OCC(=O)O)c3csc(N)n3)[C@H]2SC1 [cefixime]
survival of intracellular Salmonella in macrophages, antibiotic alone ([1]; HCA): inhibited the survival of intracellular Salmonella in macrophages in a dose-dependent manner
